For the data set the following is noted: Crystal; visual observation.

Each structure is given as a SMILES string. Numbers after ± are expanded uncertainties.

Experimental findings from the NIST ThermoML archive (doi:10.1021/je900386p) are described below.

In the case of `F[P-](F)(F)(F)(F)F.F[P-](F)(F)(F)(F)F.c1cc[n+](CCC[n+]2ccccc2)cc1` [1,1'-(1,3-propanediyl)bis-pyridinium hexafluorophosphate], the Normal melting temperature is 284.6 ± 1.4 °C.
